Results reported in patent publication US7622469B2, “2,4-diamino-1,3,5-triazine derivatives” (Hamari Chemicals, Ltd., priority 2002, dated 2009).
Values after ≈ are worked out from the molar mass of the structure shown.

Assays:
Experiment in all cases: Antibacterial activity test (MIC)
Conditions in all cases: Mueller-Hinton Broth, 37° C., 20 to 24 hours
MRSA 97-115 = type: cell-based, methicillin-resistant Staphylococcus aureus
Protocol: (§1) Regarding compounds obtained in respective Working Examples, in order to investigate antibacterial activity, minimal inhibitory concentration (MIC) was determined according to a standard method of Japanese Society of Chemotherapy.
(§2) As a test bacterium, nine kinds of S. aureus 209PJC, MRSA 97-115, MRSA KM 97-53, MRSA KM97-108, VRE 49, E. coli NIHJ JC-2, P. aeruginosa PAO-1, P. aeruginosa No. 12, P. aeruginosa KM97-5 were used and, as a medium, Mueller-Hinton Broth (DIFCO) was used. One platinum loop of a test bacterium was inoculated into 20 ml of a medium, and static culture was carried out at 37° C. for 16 to 20 hours, and then each bacterium species was diluted with a sterilized physiological saline to 10^5/ml, which was used as a test bacterium solution.
(§3) Then, each compound was dissolved in methanol, subjected to ½ stepwise dilution with a medium to prepare a medium for measuring sensitivity, and each 2 ml was dispensed into a test tube. A compound concentration in a medium was adjusted to 100 μg/ml and its 2^n-fold (n=−10 to 1).
(§4) Numerical values in Tables represent MIC expressed in μg/ml unit.

E. coli NIHJ JC-2 = type: cell-based
Protocol: as §1, §2, §3, §4

P. aeruginosa PAO-1 = type: cell-based
Protocol: as §1, §2, §3, §4

S. aureus 209PJC = type: cell-based
Protocol: as §1, §2, §3, §4

Row | SMILES | minimal inhibitory concentration (MIC) (MRSA 97-115) [µg/mL] | minimal inhibitory concentration (MIC) (E. coli NIHJ JC-2) [µg/mL] | minimal inhibitory concentration (MIC) (P. aeruginosa PAO-1) [µg/mL] | minimal inhibitory concentration (MIC) (S. aureus 209PJC) [µg/mL]
1 | CCCCCCCCC1N=C(N)N=C(N)N1c1cc(C(C)(C)C)ccc1OC.Cl (stereo not shown) [compound 24] | 1.6 | 50 | 50 | 1.6
2 | CCCCCCCCC1N=C(N)N=C(N)N1c1ccc(OC(F)(F)F)cc1.Cl (stereo not shown) [compound 26] | 6.3 | 50 | 50 | 3.1
3 | CCCCCCCCC1N=C(N)NC(Nc2ccc(OC(F)(F)F)cc2)=N1.Cl (stereo not shown) [compound 27] | 1.6 | 25 | >100 | 1.6
4 | CCCCCCCCCC1N=C(N)N=C(N)N1c1ccc(OC(F)(F)F)cc1.Cl (stereo not shown) [compound 28] | 3.1 | 25 | 50 | 1.6
5 | CCCCCCCCCC1N=C(N)NC(Nc2ccc(OC(F)(F)F)cc2)=N1.Cl (stereo not shown) [compound 29] | 1.6 | >100 | >100 | 0.8
6 | CCCCCCCCCC1N=C(N)N=C(N)N1c1ccc(F)c(F)c1F.Cl (stereo not shown) [compound 30] | 3.1 | 25 | 50 | 1.6
7 | CCCCCCCCCCC1N=C(N)NC(Nc2ccc(F)c(F)c2F)=N1.Cl (stereo not shown) [compound 32] | 1.6 | 25 | 100 | 0.8
8 | CCCCCCCCCCC1N=C(N)N=C(N)N1c1ccc(F)cc1F.Cl (stereo not shown) [compound 33] | 3.1 | 25 | 50 | 1.6
9 | CCCCCCCCCCC1N=C(N)NC(Nc2ccc(F)cc2F)=N1 (stereo not shown) [compound 34] | 1.6 (≈ 4.38 µM) | 50 (≈ 137 µM) | 100 (≈ 274 µM) | 1.6 (≈ 4.38 µM)
10 | CCCCCCCCCCNC1=NC(C)(C)N=C(NCc2ccc(OC)cc2)N1.O=C(O)CC(=O)O [compound 39] | 0.8 | 25 | 50 | 0.4
11 | CCCCCCCCCCNC1=NC(C)(C)N=C(NCc2ccc(OC)cc2)N1.O=C(O)C(=O)O [compound 40] | 0.8 | 25 | 25 | 0.4
12 | CCCCCCCCCCNC1=NC(C)(C)N=C(NCc2ccccc2)N1.O=C(O)C(=O)O [compound 42] | 1.6 | 12.5 | 12.5 | 0.8
13 | CCCCCCCCCNC1=NC(C)(C)N=C(NCc2ccccc2)N1.O=C(O)O [compound 47] | 0.8 | 12.5 | 12.5 | 0.4
14 | CCCCCCCCCCCNC1=NC(C)(C)N=C(NCc2ccccc2)N1.O=C(O)C(=O)O [compound 51] | 0.8 | 50 | 100 | 0.4
15 | CC(=O)O.CCCCCCCCNC1=NC(C)(C)N=C(NCc2ccccc2)N1 [compound 52] | 1.6 | 12.5 | 25 | 0.8
16 | CCCCCCCNC1=NC(CC)(CC)N=C(NCc2ccccc2)N1.Cl [compound 53] | 3.1 | 50 | 100 | 1.6
17 | CC(=O)O.CCCCCCCNC1=NC2(CCCC2)N=C(NCc2ccccc2)N1 [compound 54] | 1.6 | 50 | 100 | 0.8
18 | CCCCCCCCCCNC1=NC(C)(C)N=C(NCCc2ccccc2)N1.O=C(O)CC(=O)O [compound 55] | 0.8 | 12.5 | 50 | 0.4
19 | CC(=O)O.CCCCCCCCNC1=NC(C)(C)N=C(NCCc2ccccc2)N1 [compound 57] | 1.6 | 25 | 25 | 0.8
20 | CC(=O)O.CCCCCCCNC1=NC(C)(C)N=C(NCc2ccc(C)cc2)N1 [compound 59] | 1.6 | 25 | 50 | 0.8
21 | CCCCCCCCCCNC1=NC(C)(C)N=C(NCc2ccc(C(=O)O)cc2)N1.Cl [compound 60] | 6.3 | >100 | >100 | 3.1
22 | CCCCCCCCCNC1=NC(C)(C)N(c2ccccc2)C(N)=N1.Cl [compound 61] | 6.3 | >100 | >100 | 6.3
23 | CC(=O)O.CCCCCCCCCNC1=NC(C)(C)N=C(Nc2ccccc2)N1 [compound 62] | 0.8 | 12.5 | 12.5 | 0.8
24 | CCCCCCCCNC1=NC(C)(C)N(c2cccc3ccccc23)C(N)=N1.Cl [compound 63] | 6.3 | 100 | 100 | 6.3
25 | CCCCCCCCNC1=NC(C)(C)N=C(Nc2cccc3ccccc23)N1 [compound 64] | 0.8 (≈ 2.11 µM) | 25 (≈ 65.9 µM) | 25 (≈ 65.9 µM) | 0.8 (≈ 2.11 µM)
26 | CC(=O)O.CCCCCCCCNC1=NC(C)(C)N=C(NCCCCCCCC)N1 [compound 66] | 1.6 | 100 | >100 | 0.8
27 | CC(=O)O.CCCCCCCCNC1=NC(C)(C)N=C(NCCCCCCC)N1 [compound 67] | 1.6 | 100 | 100 | 0.8
28 | CC(=O)O.CCCCCCCNC1=NC(C)(C)N=C(NCCCCCC)N1 [compound 70] | 1.6 | 25 | 25 | 0.8
